Eleven compounds from article PMC9933483, “Tail-Approach-Based Design and Synthesis of Coumarin-Monoterpenes as Carbonic Anhydrase Inhibitors and Anticancer Agents” (ACS Omega, 2023) can be followed below.

Bounds are passed on as bounds.

One series deals with HEK293T cell line. As to the kind of experiment: Cell cytotoxicity, MTT assay. To be noted: Homo sapiens, HEK-293T, 24 h, healthy cell line. It counts as cell-based.
The test system of another series is PC-3 cell line. As to the kind of experiment: Cell cytotoxicity, MTT assay. It counts as cell-based. To be noted: Homo sapiens, 24 h. (Formazan colour is commonly taken as a measure of viable cells.)
Another series has as its system MCF-7 cell line. As to the kind of experiment: Cell cytotoxicity, MTT assay. Format: cell-based, human. To be noted: Homo sapiens, MCF7, 24 h.
Another series has as its system HT-29 cell line. Kind of series: Cell cytotoxicity, MTT assay. Format: cell-based, human. The settings on record: for IC50: Homo sapiens, HT-29, MTT, 24 h.
The next series addresses hCA IX (Homo sapiens, UniProt Q16790). As to the kind of experiment: biochemical.
The subject of the next series is HT-29 cells. As to the kind of experiment: Fluorescence microscopy, PI/Hoechst staining. The settings on record: HT-29, 1.25 μM, 24 h. It counts as cell-based, human. Here is the method: HT-29 cells were stained with propidium iodide (PI) and Hoechst 33342 for observation of cell viability under the microscope. HT29 cells were treated with 14, 23, and 66 for 24 h at 1.25 μM concentration. After the treatment period cells were rinsed with PBS, fixed with ice-cold ethanol (95%) at −20 °C for 2 h, and then rinsed with PBS again. Cells were incubated with PI and Hoechst for 10 min and observed by using a fluorescence microscope (Zeiss Axio Observer Z1) with the appropriate excitation/detection filters.

The subject of series [1] is CA XII. Kind of series: Western blotting of CA XII protein expression in HT-29 cells. The settings on record: western blot, hypoxia (200 μM CoCl2), 24 h, three doses. It counts as cell-based, human. Here is the method:
(§1) CA IX and CA XII protein expressions were evaluated in treated and control HT-29 and MCF7 cells after hypoxia induction. Cells were seeded in a 6-well plate in DMEM/F12 (normoxic cells) or DMEM/F12 containing 200 μM CoCl2 (hypoxic and treated cells) in order to create hypoxia.[25] HT29 cells were treated with 14 (40, 10, and 1.25 μM), 23 (80, 20, and 1.25 μM), and 66 (80, 20, and 1.25 μM), and MCF7 cells were treated with 14 (40, 10, and 1.25 μM), 23 (80, 20, and 1.25 μM), and 63 (80, 20, and 1.25 μM) for 24 h at three different doses. After the treatment period, cells were washed with cold PBS and homogenized into Ripa cell lysis buffer (Santa Cruz, USA). Samples were prepared, electrophoresed, and transferred according to the literature.[25] The membranes were blocked in 5% fat-free milk (w/v) for 1 h at RT, incubated with the corresponding antibody at 4 °C overnight, and then incubated with the horseradish peroxidase (HRP)-labeled secondary antibody for 1 h at RT. The following antibodies were used: anti-CA IX (ab107257, Abcam), anti-CA XII (sc-374314, Santa Cruz), and anti-GAPDH (A19056, Abclonal). Finally, the membranes were stained with ECL reagents (LumiGLO, CST, USA), and then, imaging was performed with the Bio-Rad Chemidoc Imaging System. The bands were calculated with the Image Lab (Bio-Rad, USA) and analyzed with Graphpad Prism 9.00 (San Diego, CA, USA).
On the technique in general: Immunoblotting shows a protein as a band on a membrane.

The subject of series [2] is CA XII. As to the kind of experiment: Western blotting of CA XII protein expression in MCF-7 cells. To be noted: western blot, hypoxia (200 μM CoCl2), 24 h, three doses. It counts as cell-based, human. Here is the method:
as §1

Series [3] has as its system CA IX. Kind of series: Western blotting of CA IX protein expression in MCF-7 cells. To be noted: western blot, hypoxia (200 μM CoCl2), 24 h, three doses. It counts as cell-based, human. The protocol: as §1
Series [4] has as its system CA IX. As to the kind of experiment: Western blotting of CA IX protein expression in HT-29 cells. It counts as cell-based, human. To be noted: western blot, hypoxia (200 μM CoCl2), 24 h, three doses. The protocol: as §1

`Cc1ccc(C(C)C)cc1OCc1cn(CCCCCCCOc2ccc3ccc(=O)oc3c2)nn1` [Compound 24, 7-((7-(4-((5-Isopropyl-2-methylphenoxy)methyl)-1H-1,2,3-triazol-1-yl)heptyl)oxy)-2H-chromen-2-one] returned a melting point of 83 to 84 °C. Also, in the series on HEK293T cell line, inhibition was half-maximal at 134 ± 60.4 µM (IC50). The same compound showed an IC50 in the series with PC-3 cell line above 200 µM. In the series on MCF-7 cell line, the IC50 was above 200 µM. For the same compound, inhibition in the series on HT-29 cell line was half-maximal at 56.9 ± 18.2 µM (IC50). Further, the inhibitory constant (Ki) at hCA IX came out at 0.0327 µM.
Regarding `Cc1ccc(C(C)C)c(OCc2cn(CCCCOc3ccc4ccc(=O)oc4c3)nn2)c1` [Compound 14, 7-(4-(4-((2-Isopropyl-5-methylphenoxy)methyl)-1H-1,2,3-triazol-1-yl)butoxy)-2H-chromen-2-one], in the series with HT-29 cells, the “apoptotic/dead cells by PI/Hoechst staining” value (shortened to “apoptotic/dead cells”) is recorded as “increased apoptotic/dead cells”. Further, the IC50 in the series with HEK293T cell line was 4.57 ± 0.33 µM; with PC-3 cell line, 53.8 ± 23.4 µM; with MCF-7 cell line, 2.48 ± 0.69 µM; in the series with HT-29 cell line, 25.1 ± 6.47 µM. Moreover, in the series with CA XII [1], the “CA XII expression in HT-29 cells” value is “decreased”. Also, in the series with CA XII [2], the “CA XII expression in MCF-7 cells” value is “decreased”. Further, the “CA IX expression in MCF-7 cells” value with CA IX [3] is “decreased”. Besides, in the series with CA IX [4], the “CA IX expression in HT-29 cells” value is on record as “decreased”.
Regarding `C=CCc1ccc(OCCCCCCCCCCOc2ccc3ccc(=O)oc3c2)c(OC)c1` [Compound 66, 7-((10-(4-Allyl-2-methoxyphenoxy)decyl)oxy)-2H-chromen-2-one], the “apoptotic/dead cells” value with HT-29 cells is given as “increased apoptotic/dead cells”. The IC50 with HEK293T cell line stood at 18.3 ± 3.08 µM; with PC-3 cell line, 25.6 ± 3.47 µM; in the series with MCF-7 cell line, 17.8 ± 2.76 µM; with HT-29 cell line, 22 ± 5.63 µM. In the series with CA XII [1], the “CA XII expression in HT-29 cells” value is “decreased”. Besides, the “CA IX expression in HT-29 cells” value in the series on CA IX [4] is “decreased”. This compound registered a Ki at hCA IX of 1.3 µM.
For the compound `C=CCc1ccc(OCCCCCCOc2ccc3ccc(=O)oc3c2)c(OC)c1` [Compound 63, 7-((6-(4-Allyl-2-methoxyphenoxy)hexyl)oxy)-2H-chromen-2-one], the IC50 with HEK293T cell line was 40.6 ± 12.1 µM; in the series with PC-3 cell line, 36.4 ± 12.3 µM; in the series on MCF-7 cell line, 3.91 ± 2.16 µM; in the series with HT-29 cell line, above 200 µM. In addition, the “CA XII expression in MCF-7 cells” value with CA XII [2] is on record as “decreased”. Further, the “CA IX expression in MCF-7 cells” value with CA IX [3] is recorded as “decreased”.
Compound `CC1CCC(C(C)C)C(OCc2cn(CCCCCCCCCCCCOc3ccc4ccc(=O)oc4c3)nn2)C1` (stereo not drawn) [Compound 43, 7-((12-(4-(((2-Isopropyl-5-methylcyclohexyl)oxy)methyl)-1H-1,2,3-triazol-1-yl)dodecyl)oxy)-2H-chromen-2-one] had a melting point of 59 to 60 °C. Further, the IC50 in the series with HEK293T cell line turned out to be 50.6 ± 8.63 µM. The compound further yielded a concentration for half-maximal inhibition (IC50) in the series with PC-3 cell line of 32.3 ± 9.99 µM. For the same compound, the 50% inhibitory concentration (IC50) in the series on MCF-7 cell line worked out at 77.2 ± 34.8 µM. Also, in the series on HT-29 cell line, the IC50 worked out at 27.2 ± 6.18 µM. The compound further displayed a Ki on hCA IX of 0.0025 µM.
Compound `CC1CCC(C(C)C)C(OCc2cn(CCCOc3ccc4ccc(=O)oc4c3)nn2)C1` (stereo not drawn) [Compound 37, 7-(3-(4-(((2-Isopropyl-5-methylcyclohexyl)oxy)methyl)-1H-1,2,3-triazol-1-yl)propoxy)-2H-chromen-2-one] yielded a melting point of 78 to 79 °C. This compound also registered a 50% inhibitory concentration (IC50) with HEK293T cell line of 24.2 ± 3.2 µM. Also, it took 29.1 ± 6.83 µM to reach half-maximal inhibition in the series on PC-3 cell line (IC50). The compound also registered a 50% inhibitory concentration (IC50) in the series on MCF-7 cell line of 18.4 ± 3.81 µM. For the same compound, the concentration for half-maximal inhibition (IC50) in the series with HT-29 cell line is 39.9 ± 11.8 µM.
The compound `C=CCc1ccc(OCc2cn(CCCOc3ccc4ccc(=O)oc4c3)nn2)c(OC)c1` [Compound 29, 7-(3-(4-((4-Allyl-2-methoxyphenoxy)methyl)-1H-1,2,3-triazol-1-yl)propoxy)-2H-chromen-2-one] displayed a melting point of 88 to 89 °C. In addition, the IC50 in the series on HEK293T cell line came to 34.1 ± 8.6 µM. In addition, the IC50 with PC-3 cell line turned out to be 32.4 ± 9.16 µM. The same compound yielded a half-maximal inhibitory concentration (IC50) in the series with MCF-7 cell line of 20.6 ± 6.5 µM. Also, the IC50 with HT-29 cell line is 23.5 ± 7.22 µM.
For `C=CCc1ccc(OCc2cn(CCCCCCCOc3ccc4ccc(=O)oc4c3)nn2)c(OC)c1` [Compound 32, 7-((7-(4-((4-Allyl-2-methoxyphenoxy)methyl)-1H-1,2,3-triazol-1-yl)heptyl)oxy)-2H-chromen-2-one], the melting point was 101 to 102 °C. In the series with HEK293T cell line, this compound came in with an IC50 of 40.6 ± 13.7 µM. The same compound displayed a concentration for half-maximal inhibition (IC50) in the series on PC-3 cell line of 36.7 ± 29 µM. In addition, the IC50 in the series with MCF-7 cell line is above 200 µM. The compound also gave a 50% inhibitory concentration (IC50) in the series on HT-29 cell line of 16.3 ± 5.34 µM.
For `Cc1ccc(C(C)C)cc1OCc1cn(CCCCCCOc2ccc3ccc(=O)oc3c2)nn1` [Compound 23, 7-((6-(4-((5-Isopropyl-2-methylphenoxy)methyl)-1H-1,2,3-triazol-1-yl)hexyl)oxy)-2H-chromen-2-one], the “apoptotic/dead cells” value in the series on HT-29 cells is “increased apoptotic/dead cells”. Also, the IC50 amounted to 8.82 ± 1.42 µM in the series on HEK293T cell line, 9.4 ± 3.35 µM in the series with PC-3 cell line, 9.1 ± 3.93 µM in the series on MCF-7 cell line and 12.1 ± 3.63 µM in the series on HT-29 cell line. The “CA XII expression in HT-29 cells” value with CA XII [1] was “decreased”. Also, the “CA XII expression in MCF-7 cells” value in the series with CA XII [2] was “decreased”. Moreover, the “CA IX expression in MCF-7 cells” value in the series with CA IX [3] is “decreased”. In the series with CA IX [4], the “CA IX expression in HT-29 cells” value was “decreased”. In the series with HT-29 cell line (compared with dox), the “selectivity on HT-29 (cancer vs healthy cells) relative to dox” value came out at 3 fold. This compound registered an inhibition constant Ki at hCA IX of 0.0019 µM.
`C=CCc1ccc(OCCOc2ccc3ccc(=O)oc3c2)c(OC)c1` [Compound 60, 7-(2-(4-Allyl-2-methoxyphenoxy)ethoxy)-2H-chromen-2-one] yielded a melting point of 86 to 87 °C. The compound further came in with an IC50 in the series on HEK293T cell line above 80 µM. This compound displayed a concentration for half-maximal inhibition (IC50) in the series on PC-3 cell line of 31.5 ± 8.71 µM. For the same compound, it took 18.5 ± 3.59 µM to reach half-maximal inhibition in the series with MCF-7 cell line (IC50). In the series with HT-29 cell line, this compound showed a half-inhibitory concentration (IC50) above 80 µM. The compound further returned an inhibition constant Ki at hCA IX of 0.176 µM.
For the compound `C=CCc1ccc(OCc2cn(CCCCOc3ccc4ccc(=O)oc4c3)nn2)c(OC)c1` [Compound 30, 7-(4-(4-((4-Allyl-2-methoxyphenoxy)methyl)-1H-1,2,3-triazol-1-yl)butoxy)-2H-chromen-2-one], the melting point was in the range of 73 to 74 °C. For the same compound, the IC50 in the series on HEK293T cell line is 26.8 ± 2.44 µM. The IC50 in the series on PC-3 cell line came to 57.6 ± 23.9 µM. In the series on MCF-7 cell line, this compound came in with an IC50 of 51.2 ± 27 µM. Further, in the series on HT-29 cell line, the half-inhibitory concentration (IC50) came out at 41.8 ± 13.5 µM.

The IC50 is the concentration at which inhibition is half-maximal. For orientation: melting point means the temperature, or range, at which the solid turns liquid. One may read the Ki as a dissociation constant, usually derived from enzyme kinetics or from competition with a known ligand. High values mean weaker binding, low ones tighter binding.
